# Columns and labels:
# solubility in water = type: physicochemical
# pH in water solution = type: physicochemical; settings: 10% aqueous solution
# urinary Trp metabolites = assay: in vivo trial: urinary tryptophan and metabolites in bladder cancer patients (HPLC in reverse phase)
# Protocol: 24 bladder cancer patients were randomized into two groups to receive MESNA-Arginine (per os, 800 mg/daily) or placebo. In both groups 24 hours before and after administration of the drug (MESNA-Arginine, or Placebo), urinary Kynurenine (Ky), Xanthurenic acid (XA), 5-hydroxy-indoleacetic acid (5-HIAA), AA, Trp and 3-OH-AA were determined by HPLC in reverse phase (Rocchini P., Bizzari M., Pompei M; Ciani D., Panicucci M. and Gallo S. Urinary determination of Tryptophan and related metabolites through HPLC in reverse-phase. Rass. Chimi. 1:15-18, 1984.)
# [1] = background statement; cited from earlier work
# [2] = per os, 800 mg/daily, after 24 hours, P-0.001
# [3] = per os, 800 mg/daily, after 24 hours, listed as MESNA-Arginine
# [4] = per os, 800 mg/daily, after 24 hours, listed as MESNA-arginine
smiles,measurement,setting,value
"O=S(=O)(O)CCS [Example 2, arginine mercaptoethansulphonate]",solubility in water,solubility in water,perfect
same,pH in 10% water solution,pH in water solution,6.7
same,cerebral uptake of Trp,urinary Trp metabolites; inferred from rate excretion of 5-HIAA,no variations
same,urinary tryptophan levels,"urinary Trp metabolites; per os, 800 mg/daily, after 24 hours",slight reduction
same,reduction of urinary 3-OH-anthranilic acid,urinary Trp metabolites; [2],-71%
same,reduction of urinary anthranilic acid,urinary Trp metabolites; [2],-61%
same,urinary 5-HIAA,urinary Trp metabolites; [3],no variation
same,urinary kynurenine (Ky),urinary Trp metabolites; [3],no variation
same,urinary xanthurenic acid (XA),urinary Trp metabolites; [3],no variation
same,urinary 5-HIAA,urinary Trp metabolites; [4],substantial invariance
same,urinary kynurenine (Ky),urinary Trp metabolites; [4],unchanged
same,urinary xanthurenic acid (XA),urinary Trp metabolites; [4],unchanged
"O=S(=O)(O)CCS [MESNA, mercaptoethansulphonic acid]",instability of the compound in the free state,[1],high instability
